{
  "source": "paper PMC7277793",
  "about": "(Biomolecules, 2020)",
  "key": {"[1]": {"biological_target": "T1, MARK4 (Homo sapiens, UniProt Q96L34)", "T1 construct": "made in house", "T1 sequence (Q96L34 1-752)": "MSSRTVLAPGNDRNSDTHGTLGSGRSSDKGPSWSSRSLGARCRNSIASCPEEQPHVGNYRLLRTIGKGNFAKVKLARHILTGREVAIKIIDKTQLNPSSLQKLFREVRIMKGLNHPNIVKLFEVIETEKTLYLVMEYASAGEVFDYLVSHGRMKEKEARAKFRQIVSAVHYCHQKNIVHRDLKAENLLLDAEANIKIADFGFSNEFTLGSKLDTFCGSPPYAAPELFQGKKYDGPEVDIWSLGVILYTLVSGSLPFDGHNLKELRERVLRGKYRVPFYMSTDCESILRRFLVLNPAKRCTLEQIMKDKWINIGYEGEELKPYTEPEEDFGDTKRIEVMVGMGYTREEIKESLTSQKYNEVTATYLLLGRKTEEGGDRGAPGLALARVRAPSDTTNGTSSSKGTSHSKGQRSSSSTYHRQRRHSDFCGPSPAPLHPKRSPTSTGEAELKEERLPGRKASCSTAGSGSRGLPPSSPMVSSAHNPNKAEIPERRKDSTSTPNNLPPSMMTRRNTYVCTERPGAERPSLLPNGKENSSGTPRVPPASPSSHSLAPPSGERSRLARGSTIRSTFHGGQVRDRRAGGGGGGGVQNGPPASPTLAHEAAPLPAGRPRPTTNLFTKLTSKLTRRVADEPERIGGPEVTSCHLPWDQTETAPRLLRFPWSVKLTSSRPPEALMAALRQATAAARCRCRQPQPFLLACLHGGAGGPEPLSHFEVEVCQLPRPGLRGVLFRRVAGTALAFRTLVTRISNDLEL", "assay": "Fluorescence quenching binding study of MARK4 with DP and RT", "conditions": "for Kq (quenching rate constant): Kq=Ksv/τ0, τ0 2.7 × 10^−9 s; for Ksv (Stern−Volmer constant): MARK4 4 μM; for n (number of the binding site) / Kd: modified Stern−Volmer plot; for ΔG (change in Gibbs free energy): van't Hoff equation; for mode of fluorescence quenching of the MARK4 complex: from temperature dependency of Ksv and from Kq; for ΔH (change in enthalpy) / ΔS (change in entropy): van't Hoff plot over 293, 296, 298 K, same value printed in each temperature row; for Kd: K (binding constant)", "description": "The observed fluorescence intensities were corrected for the inner filter effect. Obtained data were fitted into the Stern−Volmer and modified Stern−Volmer equations to estimate Stern-Volmer constant (Ksv), binding constant (Ka), and the number of binding sites (n).\nEquation (1) (van’t Hoff equation) was used to find the thermodynamic parameters such as changes in enthalpy, entropy, and Gibbs free energy associated with the reaction. (1) ΔG=−RTLnK=ΔH−TΔS\nK is the obtained binding constant, ΔH is the associated enthalpy change and ΔG is the associated free Gibbs energy change. ΔS denotes the associated entropy change with reaction, and R is the universal gas constant.\nThe slope of the van’t Hoff plot (LnK on Y-axis against 1/T on the X-axis) gives the value of −ΔH/R, and the intercept giving the value of ΔS/R.\nThe intrinsic fluorescence of protein due to tryptophan is often used to get an insight into the ligand binding to the protein because binding often leads to changes in the surrounding environment around tryptophan residues which corresponds to observed changes in fluorescence. The recombinant MARK4 was expressed and purified to carry out all binding studies.\nKsv was obtained from the slope of this plot at a fixed intercept after linear regression using the Stern−Volmer equation (Equation (2)). (2) F0/F=1+Ksv[C]\nThe SV plot of combined quenching (both static and dynamic) is characteristically an upward curvature while the linear Stern−Volmer plot depicts that only one mode of quenching was operative. […] The linear plot and upward curvature are not enough to define the quenching type. […] Equation (3) uses Ksv and τo (average integral fluorescence lifetime of tryptophan) (2.7 × 10^−9 s) to find biomolecular quenching rate constant (Kq) (3) Kq=Ksv/τ0\nTo get insights into other binding parameters, Equation (4) was used. This equation gives binding constant (K) and the number of binding sites (n). (4) logF0−F/F=logK+nlog[C]"}, "[2]": {"biological_target": "T1, MARK4", "assay": "Isothermal titration calorimetry", "assay_type": "binding", "conditions": "ITC, 25 °C, 20 µM MARK4; for Kd: 100 µM DP or 200 µM RT in syringe", "protocol": "Isothermal titration calorimetry (ITC) measurements were carried out on a VP-ITC microcalorimeter (MicroCal, Inc, GE, MicroCal, Northampton, MA, USA) at 25 °C. All the solutions were degassed in thermovac for 20 min to remove air bubbles. For sample preparation, recombinant MARK4 was extensively dialyzed in 20 mM Tris buffer, pH 8.5. […] We used standard protocol to run the ITC in which the first injection was a false injection of 2 μL followed by injections of 10 μL of the ligands at a span of 260 s intervals into the sample cell. The stirring rate was maintained at 320 rpm. The obtained titration data were analyzed by Origin 8.0 software to estimate thermodynamic parameters such as stoichiometry of binding (n), enthalpy change (ΔH), an association constant (Ka)."}, "[3]": {"biological_target": "T1, MARK4", "assay": "ATPase inhibition assay (malachite green, BIOMOL reagent)", "assay_type": "biochemical", "conditions": "MARK4 4 μM, ligand 0–20 μM, pre-incubated 60 min, 200 μM ATP, 25 °C; AAT Bioquest calculator", "experimental": "The activity of MARK4 was measured using standard malachite green (BIOMOL® reagent, Enzo Life Sciences) microtitre-plate assay using previously-published protocols [17, 40].\nInitially, MARK4 (4 μM) was pre-incubated with increasing concentrations of ligands at room temperature for 60 min in a 96-well plate. Subsequently, 200 μM of freshly-prepared ATP was mixed to the reaction mixture and incubated for 15–20 min at 25 °C. At the end of this time, BIOMOL® reagent was added and kept for 15–20 min. The intensity of color was spectrophotometrically measured at 620 nm."}},
  "note": "Counter-ions that a name gives are not always drawn.",
  "data": [
    {"compound": "COc1cc2c(cc1OC)C(=O)C(CC1CCN(Cc3ccccc3)CC1)C2", "note": "(stereo not drawn) [DP, Donepezil]", "values": [
      {"measurement": "TΔS", "setting": "[1]; 293 K", "result": -126.79, "unit": "kcal/mol"},
      {"measurement": "Kq (quenching rate constant)", "setting": "[1]; 293 K", "result": "6.85 10^14 M^−1 s^−1"},
      {"measurement": "Ksv (Stern−Volmer constant)", "setting": "[1]; 293 K, DP 0−200 nM", "result": "18.5 10^5 M^−1"},
      {"measurement": "n (number of the binding site)", "setting": "[1]; 293 K", "result": 1.66},
      {"measurement": "ΔG (change in Gibbs free energy)", "setting": "[1]; 293 K", "result": -10.70, "unit": "kcal/mol"},
      {"measurement": "TΔS", "setting": "[1]; 296 K", "result": -128.09, "unit": "kcal/mol"},
      {"measurement": "Kq (quenching rate constant)", "setting": "[1]; 296 K", "result": "5.81 10^14 M^−1 s^−1"},
      {"measurement": "Ksv (Stern−Volmer constant)", "setting": "[1]; 296 K, DP 0−200 nM", "result": "15.7 10^5 M^−1"},
      {"measurement": "n (number of the binding site)", "setting": "[1]; 296 K", "result": 1.311},
      {"measurement": "ΔG (change in Gibbs free energy)", "setting": "[1]; 296 K", "result": -9.40, "unit": "kcal/mol"},
      {"measurement": "TΔS", "setting": "[1]; 298 K", "result": -128.95, "unit": "kcal/mol"},
      {"measurement": "Kq (quenching rate constant)", "setting": "[1]; 298 K", "result": "5.03 10^14 M^−1 s^−1"},
      {"measurement": "Ksv (Stern−Volmer constant)", "setting": "[1]; 298 K, DP 0−200 nM", "result": "13.6 10^5 M^−1"},
      {"measurement": "n (number of the binding site)", "setting": "[1]; 298 K", "result": 0.1},
      {"measurement": "mode of fluorescence quenching of the MARK4 complex", "setting": "[1]", "result": "static mode"},
      {"measurement": "ΔH (change in enthalpy)", "setting": "[1]", "result": -137.5, "unit": "kcal/mol"},
      {"measurement": "ΔS (change in entropy)", "setting": "[1]", "result": "−432.749", "unit": "cal mol^−1K^−1"},
      {"measurement": "∆S1", "setting": "[2]", "result": 51.2, "unit": "cal/mol/deg"},
      {"measurement": "∆S2", "setting": "[2]", "result": -207, "unit": "cal/mol/deg"},
      {"measurement": "∆S3", "setting": "[2]", "result": 368, "unit": "cal/mol/deg"},
      {"measurement": "∆S4", "setting": "[2]", "result": -327, "unit": "cal/mol/deg"}
    ]},
    {"compound": "CCN(C)C(=O)Oc1cccc([C@H](C)N(C)C)c1", "note": "[RT, rivastigmine tartrate]", "values": [
      {"measurement": "TΔS", "setting": "[1]; 293 K", "result": -133.48, "unit": "kcal/mol"},
      {"measurement": "Kq (quenching rate constant)", "setting": "[1]; 293 K", "result": "1.25 10^13 M^−1 s^−1"},
      {"measurement": "Ksv (Stern−Volmer constant)", "setting": "[1]; 293 K, RT 0−9 µM", "result": "3.4 10^4 M^−1"},
      {"measurement": "n (number of the binding site)", "setting": "[1]; 293 K", "result": 1.66},
      {"measurement": "ΔG (change in Gibbs free energy)", "setting": "[1]; 293 K", "result": -10.74, "unit": "kcal/mol"},
      {"measurement": "TΔS", "setting": "[1]; 296 K", "result": -135.76, "unit": "kcal/mol"},
      {"measurement": "Kq (quenching rate constant)", "setting": "[1]; 296 K", "result": "1.44 10^13 M^−1 s^−1"},
      {"measurement": "Ksv (Stern−Volmer constant)", "setting": "[1]; 296 K, RT 0−9 µM", "result": "3.9 10^4 M^−1"},
      {"measurement": "n (number of the binding site)", "setting": "[1]; 296 K", "result": 1.311},
      {"measurement": "ΔG (change in Gibbs free energy)", "setting": "[1]; 296 K", "result": -8.46, "unit": "kcal/mol"},
      {"measurement": "TΔS", "setting": "[1]; 298 K", "result": -138.04, "unit": "kcal/mol"},
      {"measurement": "Kq (quenching rate constant)", "setting": "[1]; 298 K", "result": "2.14 10^13 M^−1 s^−1"},
      {"measurement": "Ksv (Stern−Volmer constant)", "setting": "[1]; 298 K, RT 0−9 µM", "result": "5.8 10^4 M^−1"},
      {"measurement": "n (number of the binding site)", "setting": "[1]; 298 K", "result": 0.94},
      {"measurement": "ΔG (change in Gibbs free energy)", "setting": "[1]; 298 K", "result": -6.18, "unit": "kcal/mol"},
      {"measurement": "Kd", "setting": "[1]; 293 K", "result": 0.00952, "unit": "µM"},
      {"measurement": "Kd", "setting": "[1]; 296 K", "result": 0.625, "unit": "µM"},
      {"measurement": "Kd", "setting": "[1]; 298 K", "result": 50, "unit": "µM"},
      {"measurement": "mode of fluorescence quenching of the MARK4 complex", "setting": "[1]", "result": "combination of static and dynamic modes of quenching"},
      {"measurement": "ΔH (change in enthalpy)", "setting": "[1]", "result": -144.23, "unit": "kcal/mol"},
      {"measurement": "ΔS (change in entropy)", "setting": "[1]", "result": "−455.78", "unit": "cal mol^−1K^−1"},
      {"measurement": "∆S1", "setting": "[2]", "result": 31.1, "unit": "cal/mol/deg"},
      {"measurement": "∆S2", "setting": "[2]", "result": -700, "unit": "cal/mol/deg"},
      {"measurement": "Kd", "setting": "[2]; read-out: Ka1 (association constant) (converted)", "result": 9.8, "unit": "µM"},
      {"measurement": "Kd", "setting": "[2]; read-out: Ka2 (association constant) (converted)", "result": 8.55, "unit": "µM"},
      {"measurement": "Kd", "setting": "[2]; read-out: Ka3 (association constant) (converted)", "result": 5, "unit": "µM"},
      {"measurement": "IC50", "setting": "[3]", "result": 6.74, "unit": "µM"}
    ]}
  ]
}
